By Ki is commonly meant the equilibrium dissociation constant of an inhibitor or competing ligand from its target.

The assay has as its target T1, Progesterone receptor (Oryctolagus cuniculus, UniProt P06186).
T1 sequence (P06186 whole entry): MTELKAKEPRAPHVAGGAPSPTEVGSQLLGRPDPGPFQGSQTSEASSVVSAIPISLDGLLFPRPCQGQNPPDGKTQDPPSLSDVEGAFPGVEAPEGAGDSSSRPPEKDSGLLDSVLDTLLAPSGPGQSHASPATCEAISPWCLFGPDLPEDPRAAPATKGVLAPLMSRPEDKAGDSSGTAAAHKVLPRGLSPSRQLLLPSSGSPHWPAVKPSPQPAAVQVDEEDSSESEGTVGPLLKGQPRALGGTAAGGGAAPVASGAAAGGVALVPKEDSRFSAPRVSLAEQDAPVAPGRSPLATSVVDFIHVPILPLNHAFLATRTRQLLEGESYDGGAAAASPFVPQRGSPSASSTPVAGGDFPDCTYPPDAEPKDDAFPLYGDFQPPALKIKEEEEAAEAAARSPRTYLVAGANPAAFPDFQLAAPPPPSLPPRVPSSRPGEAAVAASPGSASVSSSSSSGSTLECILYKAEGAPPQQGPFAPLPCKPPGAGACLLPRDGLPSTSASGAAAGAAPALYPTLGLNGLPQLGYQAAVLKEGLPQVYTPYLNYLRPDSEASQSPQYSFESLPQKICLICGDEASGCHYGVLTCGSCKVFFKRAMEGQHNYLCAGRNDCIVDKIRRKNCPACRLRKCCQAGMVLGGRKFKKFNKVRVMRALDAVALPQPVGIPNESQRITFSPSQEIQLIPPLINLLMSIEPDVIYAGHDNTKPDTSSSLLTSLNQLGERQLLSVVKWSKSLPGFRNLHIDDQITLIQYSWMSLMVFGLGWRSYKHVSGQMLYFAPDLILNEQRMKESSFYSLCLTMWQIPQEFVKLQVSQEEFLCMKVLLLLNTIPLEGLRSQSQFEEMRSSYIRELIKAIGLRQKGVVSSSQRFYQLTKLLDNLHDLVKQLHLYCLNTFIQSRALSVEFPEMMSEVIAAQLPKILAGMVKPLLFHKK
Kind of assay: Inhibition of [3H]R5020 binding to rabbit uterine progesterone receptor.
In the case of `CC12CCC3C4CCC(=O)C=C4CCC3C1CCC2(O)/C=C/I` (centres undefined), the Ki amounted to 0.00181 µM. This counts as single-digit nanomolar.
With `CC12CCC3C4CCC(=O)C=C4CCC3C1CCC2(O)/C=C\I` (centres undefined), affinity was put at a Ki of 0.00426 µM.
The same measure for `CC12CCC3C4CCC(=O)C=C4CCC3C1C[C@@H](I)C2O` (some centres undefined): 0.0398 µM.
Molecule `C=C(I)C1(O)CCC2C3CCC4=CC(=O)CCC4C3CCC21C` (centres undefined) returned a Ki of 0.0801 µM.

Values taken from ChEMBL document CHEMBL1123130 (J Med Chem, 1985).
